Earlier results on 1 compound are cited in patent publication US20110313027A1, “METHODS AND SUBSTANCES FOR STIMULATING MUSCLE REGENERATION” (priority 2008, published 2011).

The series has as its system SERCAs. To be noted: cultured muscle cells.

As to `C/C=C(/C)C(=O)O[C@H]1C(C)=C2[C@H]([C@@H]1OC(=O)CCCCCCC)[C@@](C)(OC(C)=O)C[C@H](OC(=O)CCC)[C@@]1(O)[C@H]2OC(=O)[C@@]1(C)O` [thapsigargin], the “activity of an NFAT reporter construct” value is “increased the activity”; the “myotube growth and differentiation” value is “decreases myotube growth and differentiation”.
